The source of these data is ChEMBL document CHEMBL4396963, “An exploration of solvent-front region high affinity moiety leading to novel potent ALK & ROS1 dual inhibitors with mutant-combating effects” (Bioorg Med Chem, 2019).

Calls of active or inactive are those of the source. No cut-off for these calls is given here.

The test system of test [1] is NCI-H2228. Nature of the test: Antiproliferative activity against human NCI-H2228 cells assessed as reduction in cell viability incubated for 72 hrs by MTT assay. The class given is functional, cell-based. The following applies: NCI-H2228, 72 h. Background: Tetrazolium assays rely on reduction of a dye to a coloured formazan, in cell work by metabolically active cells.

Test [2] deals with A549. Nature of the test: Antiproliferative activity against human A549 cells harbouring […] mutant assessed as reduction in cell viability incubated for 72 hrs by MTT assay. The class given is functional, cell-based. Conditions: A549, 72 h.
Test [3] has as its target Proto-oncogene tyrosine-protein kinase ROS (Homo sapiens, UniProt P08922). Nature of the test: Inhibition of recombinant human N-terminal GST-tagged ROS (1883 to 2347 residues) cytoplasmic domain expressed in baculovirus expression system using IRS1 as substrate incubated for 1 hr by mobility shift assay.
Test [4] has as its target ALK tyrosine kinase receptor (Homo sapiens, UniProt Q9UM73). Description: Inhibition of recombinant human N-terminal GST-tagged ALK (1058 to 1620 residues) cytoplasmic domain expressed in baculovirus expression system using srctide as substrate incubated for 1 hr by mobility shift assay.
In test [5] the target is Epidermal growth factor receptor (Homo sapiens, UniProt P00533).
Description: Inhibition of recombinant human N-terminal GST-tagged EGFR (669 to 1210 residues) cytoplasmic domain expressed in baculovirus expression system using Srctide as substrate incubated for 1 hr by mobility shift assay
The target in test [6] is ALK tyrosine kinase receptor (Homo sapiens, UniProt Q9UM73, L1196M). Nature of the test: Inhibition of recombinant human N-terminal GST-tagged ALK (1058 to 1620 residues) cytoplasmic domain L1196M mutant expressed in baculovirus expression system using srctide as substrate incubated for 1 hr by mobility shift assay.
For test [7], the target named is Hepatocyte growth factor receptor (Homo sapiens, UniProt P08581). Nature of the test: Inhibition of recombinant human N-terminal GST-tagged MET (956 to 1390 residues) cytoplasmic domain expressed in baculovirus expression system using Srctide as substrate incubated for 1 hr by mobility shift assay.
Another test has as its system HT-29. Nature of the test: cells. Conditions: Homo sapiens, HT-29, 72 h.
The subject of test [8] is A549. Description: cells. Conditions: Homo sapiens, A549, 72 h.
A further test has as its system KARPAS-299. Description: Antiproliferative activity against human KARPAS299 cells assessed as reduction in cell viability incubated for 72 hrs by MTT assay. It counts as functional, cell-based. The following applies: KARPAS-299, 72 h.
Test [9] has as its target ALK tyrosine kinase receptor (Homo sapiens, UniProt Q9UM73, G1202R). Nature of the test: Inhibition of recombinant human N-terminal GST-tagged ALK (1058 to 1620 residues) cytoplasmic domain G1202R mutant using srctide as substrate incubated for 1 hr by mobility shift assay.
The next test has as its system HCC78. Description: Antiproliferative activity against human HCC78 cells assessed as reduction in cell viability incubated for 72 hrs by MTT assay. The class given is functional, cell-based. Conditions: HCC78, 72 h.
Test [10] relates to NCI-H2228. Description: Induction of apoptosis in human NCI-H2228 cells assessed as increase in nuclear shrinkage at 30 nM incubated for 48 hrs by AO/EB staining based fluorescence microscopy. It counts as functional, cell-based.
Test [11] deals with A549. Description: Potency index, ratio of IC50 of ceritinib to IC50 of compound for antiproliferative activity against human A549 cells harbouring […] mutant assessed as reduction in cell viability incubated for 72 hrs by MTT assay. The class given is functional.
Test [12] concerns NCI-H2228. Nature of the test: Induction of apoptosis in human NCI-H2228 cells assessed as increase in cell membrane damage at 30 nM incubated for 48 hrs by Hoechst 33258 staining based fluorescence microscopy. The class given is functional.
Test [13] has as its system NCI-H2228. Nature of the test: Induction of apoptosis in human NCI-H2228 cells assessed as increase in nuclear shrinkage incubated for 48 hrs by AO/EB staining based fluorescence microscopy. The class given is functional, cell-based.
Test [14] has as its system NCI-H2228. Description: Induction of apoptosis in human NCI-H2228 cells assessed as increase in nuclei damage incubated for 48 hrs by Hoechst 33258 staining based fluorescence microscopy. The class given is functional, cell-based.
Test [15] relates to NCI-H2228. Description: Induction of apoptosis in human NCI-H2228 cells assessed as increase in nuclear fragmentation at 30 nM incubated for 48 hrs by AO/EB staining based fluorescence microscopy. The class given is functional, cell-based.
Test [16] has as its system NCI-H2228. Nature of the test: Induction of apoptosis in human NCI-H2228 cells assessed as increase in nuclei damage at 30 nM incubated for 48 hrs by Hoechst 33258 staining based fluorescence microscopy. It counts as functional, cell-based.
The test system of test [17] is NCI-H2228. Nature of the test: Induction of apoptosis in human NCI-H2228 cells assessed as increase in nuclear fragmentation incubated for 48 hrs by AO/EB staining based fluorescence microscopy. It counts as functional, cell-based.
The subject of test [18] is NCI-H2228. Description: Induction of apoptosis in human NCI-H2228 cells assessed as increase in cell membrane damage incubated for 48 hrs by Hoechst 33258 staining based fluorescence microscopy. It counts as functional.

Chain of Hepatocyte growth factor receptor (P08581 whole entry, the tested form may be a part): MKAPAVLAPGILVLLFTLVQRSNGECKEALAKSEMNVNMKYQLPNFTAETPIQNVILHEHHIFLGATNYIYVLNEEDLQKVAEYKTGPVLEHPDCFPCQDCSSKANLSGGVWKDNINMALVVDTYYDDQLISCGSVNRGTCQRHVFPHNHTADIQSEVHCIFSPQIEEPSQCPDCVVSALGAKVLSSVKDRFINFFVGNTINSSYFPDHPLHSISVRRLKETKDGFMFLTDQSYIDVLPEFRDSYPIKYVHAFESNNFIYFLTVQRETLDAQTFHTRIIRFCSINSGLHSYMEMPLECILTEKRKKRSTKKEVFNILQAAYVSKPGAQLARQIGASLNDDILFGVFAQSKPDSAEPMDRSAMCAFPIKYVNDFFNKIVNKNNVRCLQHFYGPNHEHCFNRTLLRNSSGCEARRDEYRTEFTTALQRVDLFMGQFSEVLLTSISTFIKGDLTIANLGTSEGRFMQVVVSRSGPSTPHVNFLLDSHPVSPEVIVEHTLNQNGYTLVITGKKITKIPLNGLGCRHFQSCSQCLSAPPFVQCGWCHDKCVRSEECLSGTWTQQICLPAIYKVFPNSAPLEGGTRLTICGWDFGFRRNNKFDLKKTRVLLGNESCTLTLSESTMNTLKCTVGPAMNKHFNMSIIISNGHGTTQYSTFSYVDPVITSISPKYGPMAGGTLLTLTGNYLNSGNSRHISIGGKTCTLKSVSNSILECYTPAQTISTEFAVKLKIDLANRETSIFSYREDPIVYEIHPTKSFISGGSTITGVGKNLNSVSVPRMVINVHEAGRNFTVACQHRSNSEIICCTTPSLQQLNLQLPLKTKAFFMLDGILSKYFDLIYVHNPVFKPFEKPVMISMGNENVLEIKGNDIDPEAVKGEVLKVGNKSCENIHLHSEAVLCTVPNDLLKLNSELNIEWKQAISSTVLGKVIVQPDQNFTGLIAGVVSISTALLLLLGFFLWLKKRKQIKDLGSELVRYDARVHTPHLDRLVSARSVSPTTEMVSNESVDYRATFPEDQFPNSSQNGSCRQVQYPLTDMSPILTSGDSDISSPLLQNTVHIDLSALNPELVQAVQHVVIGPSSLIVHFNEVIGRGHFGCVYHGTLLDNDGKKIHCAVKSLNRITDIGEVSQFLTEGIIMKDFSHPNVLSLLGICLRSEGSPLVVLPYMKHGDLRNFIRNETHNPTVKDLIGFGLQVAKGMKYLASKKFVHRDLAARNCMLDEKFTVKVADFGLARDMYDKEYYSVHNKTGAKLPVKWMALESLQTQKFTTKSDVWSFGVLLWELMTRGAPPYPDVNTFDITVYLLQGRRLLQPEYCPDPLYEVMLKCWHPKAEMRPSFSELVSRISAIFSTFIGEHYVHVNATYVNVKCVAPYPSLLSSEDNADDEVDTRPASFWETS
Chain of ALK tyrosine kinase receptor (Homo sapiens, UniProt Q9UM73) (Q9UM73 whole entry, the tested form may be a part): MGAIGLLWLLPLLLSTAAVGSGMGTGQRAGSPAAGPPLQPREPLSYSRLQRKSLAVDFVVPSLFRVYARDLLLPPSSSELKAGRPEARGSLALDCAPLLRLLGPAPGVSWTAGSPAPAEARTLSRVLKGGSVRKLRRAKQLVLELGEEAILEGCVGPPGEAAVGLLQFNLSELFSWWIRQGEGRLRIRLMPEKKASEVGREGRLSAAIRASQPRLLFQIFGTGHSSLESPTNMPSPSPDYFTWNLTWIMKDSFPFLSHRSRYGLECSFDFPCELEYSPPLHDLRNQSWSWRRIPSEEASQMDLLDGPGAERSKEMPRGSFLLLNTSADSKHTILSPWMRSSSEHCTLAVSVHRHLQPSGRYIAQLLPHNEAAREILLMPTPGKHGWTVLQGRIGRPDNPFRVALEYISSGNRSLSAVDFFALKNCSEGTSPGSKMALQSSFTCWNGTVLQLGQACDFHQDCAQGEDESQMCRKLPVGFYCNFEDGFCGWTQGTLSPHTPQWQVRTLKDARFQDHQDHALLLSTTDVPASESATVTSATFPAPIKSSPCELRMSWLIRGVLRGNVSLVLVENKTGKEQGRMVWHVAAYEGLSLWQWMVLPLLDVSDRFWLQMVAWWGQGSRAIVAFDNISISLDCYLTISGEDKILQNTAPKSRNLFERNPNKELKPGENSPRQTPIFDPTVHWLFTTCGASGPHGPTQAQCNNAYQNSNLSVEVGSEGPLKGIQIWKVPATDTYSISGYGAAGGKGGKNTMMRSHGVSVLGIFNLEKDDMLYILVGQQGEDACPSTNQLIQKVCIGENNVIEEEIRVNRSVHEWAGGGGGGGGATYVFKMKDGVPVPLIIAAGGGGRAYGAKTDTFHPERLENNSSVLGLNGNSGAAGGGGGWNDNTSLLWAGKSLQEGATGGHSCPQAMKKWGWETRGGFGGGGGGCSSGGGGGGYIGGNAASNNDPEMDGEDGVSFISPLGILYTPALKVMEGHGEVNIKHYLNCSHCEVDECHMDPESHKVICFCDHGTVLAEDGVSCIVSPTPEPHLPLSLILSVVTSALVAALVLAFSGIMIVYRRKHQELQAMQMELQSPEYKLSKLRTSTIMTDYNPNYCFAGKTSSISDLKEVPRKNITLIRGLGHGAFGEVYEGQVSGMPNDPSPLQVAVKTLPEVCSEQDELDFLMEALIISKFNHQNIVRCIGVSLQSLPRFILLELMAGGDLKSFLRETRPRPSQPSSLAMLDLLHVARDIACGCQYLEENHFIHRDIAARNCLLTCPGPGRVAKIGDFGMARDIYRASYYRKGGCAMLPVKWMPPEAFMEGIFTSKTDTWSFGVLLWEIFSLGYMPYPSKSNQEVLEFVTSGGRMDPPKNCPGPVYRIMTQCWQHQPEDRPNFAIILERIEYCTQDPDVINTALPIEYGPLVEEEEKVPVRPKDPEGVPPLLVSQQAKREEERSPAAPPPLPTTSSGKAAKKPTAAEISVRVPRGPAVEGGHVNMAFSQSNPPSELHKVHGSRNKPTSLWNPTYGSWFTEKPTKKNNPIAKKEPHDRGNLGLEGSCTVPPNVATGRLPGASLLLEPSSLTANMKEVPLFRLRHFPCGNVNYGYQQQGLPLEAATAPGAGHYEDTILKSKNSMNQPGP
Chain of Epidermal growth factor receptor (P00533 whole entry, the tested form may be a part): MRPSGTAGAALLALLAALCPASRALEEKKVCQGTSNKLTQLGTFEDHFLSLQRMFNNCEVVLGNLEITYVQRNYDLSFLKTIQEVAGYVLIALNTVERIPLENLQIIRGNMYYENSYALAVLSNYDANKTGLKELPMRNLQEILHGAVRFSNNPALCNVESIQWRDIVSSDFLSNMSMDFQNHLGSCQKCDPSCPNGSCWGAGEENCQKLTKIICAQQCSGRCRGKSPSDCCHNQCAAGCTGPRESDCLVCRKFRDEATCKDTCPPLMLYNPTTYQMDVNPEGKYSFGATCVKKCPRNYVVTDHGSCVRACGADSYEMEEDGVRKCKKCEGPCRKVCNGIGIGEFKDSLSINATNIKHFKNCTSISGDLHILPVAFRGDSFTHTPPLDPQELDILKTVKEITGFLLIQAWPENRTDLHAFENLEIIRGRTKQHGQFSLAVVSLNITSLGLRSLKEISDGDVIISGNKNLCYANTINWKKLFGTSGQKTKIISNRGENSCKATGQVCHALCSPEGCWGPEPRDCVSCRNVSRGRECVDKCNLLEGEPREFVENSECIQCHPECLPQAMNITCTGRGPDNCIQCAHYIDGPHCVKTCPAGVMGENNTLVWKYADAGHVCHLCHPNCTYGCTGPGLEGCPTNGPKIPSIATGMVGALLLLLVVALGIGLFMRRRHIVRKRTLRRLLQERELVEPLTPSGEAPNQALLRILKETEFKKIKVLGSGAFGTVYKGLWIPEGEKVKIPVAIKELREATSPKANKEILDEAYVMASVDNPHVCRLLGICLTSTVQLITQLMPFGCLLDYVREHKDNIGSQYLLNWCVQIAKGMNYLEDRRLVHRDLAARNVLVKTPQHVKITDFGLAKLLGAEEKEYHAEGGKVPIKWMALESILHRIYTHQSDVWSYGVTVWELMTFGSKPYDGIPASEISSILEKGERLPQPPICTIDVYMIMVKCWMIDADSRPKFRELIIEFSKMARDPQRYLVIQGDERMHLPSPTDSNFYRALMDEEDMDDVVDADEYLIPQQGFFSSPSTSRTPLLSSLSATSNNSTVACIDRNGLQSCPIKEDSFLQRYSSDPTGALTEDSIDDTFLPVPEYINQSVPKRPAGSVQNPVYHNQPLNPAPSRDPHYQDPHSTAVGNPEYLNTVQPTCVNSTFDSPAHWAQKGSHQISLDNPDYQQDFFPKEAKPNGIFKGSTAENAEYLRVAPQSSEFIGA
Description for HT-29: Antiproliferative activity against human HT-29 cells assessed as reduction in cell viability incubated for 72 hrs by MTT assay

On to `COc1cc(NC(=O)N2CCCC2)ccc1Nc1ncc(Cl)c(Nc2ccccc2NC(C)=O)n1`, for which the IC50 (in general, the concentration needed to halve the response being measured) in the test with NCI-H2228 [1] is 79 nM; with A549 [2], 360 nM; in [3] it was 0.97 nM; in test [4] it was 5.1 nM; in test [5], greater than 1000 nM; in test [6] it was 3.7 nM. Besides, the IC50 in test [7] was greater than 1000 nM; in the test with HT-29, 1.27 µM; in the test with A549 [8], greater than 10 µM; with KARPAS-299, 160 nM; in [9] it was 7.1 nM; in the test on HCC78 it was 870 nM.
As to `COc1cc(NC(=O)NC2CCC(=O)CC2)ccc1Nc1ncc(Cl)c(Nc2ccccc2NC(C)=O)n1`, the IC50 with NCI-H2228 [1] was 550 nM; in the test on A549 [2], 190 nM; in [3] it was 3.7 nM; in test [4], 2.5 nM; in test [5], greater than 1000 nM; in [6], 3.9 nM. The IC50 in test [7] was 325 nM; with HT-29, greater than 10 µM; in the test with A549 [8], 1.72 µM; in the test on KARPAS-299 it was 77 nM; in [9], 9.3 nM; with HCC78, 67 nM.
`COc1cc(NC(=O)C2CC2)ccc1Nc1ncc(Cl)c(Nc2ccccc2NC(C)=O)n1`: the IC50 in the test on NCI-H2228 [1] amounted to 490 nM; in the test on A549 [2] it was 930 nM; in [3] it was 3.2 nM; in test [4], 4.1 nM; in [5] it was 617 nM; in [6], 6.6 nM. Besides, the concentration for half-maximal inhibition (IC50) is greater than 1000 nM in test [7]; 2.96 µM in the test on HT-29; greater than 10 µM in the test with A549 [8]; 1060 nM with KARPAS-299; 11.5 nM in [9]; 230 nM with HCC78.
For the compound `COc1cc(N2CCCC2=O)ccc1Nc1ncc(Cl)c(Nc2ccccc2NC(C)=O)n1`, the IC50 in the test on NCI-H2228 [1] was 220 nM; in the test with A549 [2], 410 nM; in test [3], 4.4 nM; in test [4] it was 6.2 nM; in test [5], greater than 1000 nM; in [6] it was 2.9 nM. For the same compound, the IC50 in test [7] stood at 532 nM; in the test with HT-29, 1.53 µM; in the test on A549 [8] it was 4.13 µM; in the test on KARPAS-299, 220 nM; in test [9] it was 15.7 nM; with HCC78, 97 nM.
In the case of `COc1cc(N2CCCNC2=O)ccc1Nc1ncc(Cl)c(Nc2ccccc2NC(C)=O)n1`, the IC50 in the test on NCI-H2228 [1] was 220 nM; with A549 [2], 170 nM; in [3], 5.3 nM; in test [4], 4.7 nM; in [5], greater than 1000 nM; in test [6], 5.1 nM. Further, the concentration for half-maximal inhibition (IC50) in test [7] was greater than 1000 nM; in the test with HT-29, 6.07 µM; with A549 [8], greater than 10 µM; in the test with KARPAS-299, 100 nM; in [9], 10.2 nM; in the test on HCC78 it was 89 nM.
Turning to `COc1cc(NC(=O)N2CCN(CCO)CC2)ccc1Nc1ncc(Cl)c(Nc2ccccc2NC(C)=O)n1`, the IC50 was 260 nM in the test with NCI-H2228 [1]; 270 nM in the test with A549 [2]; 1.7 nM in test [3]; 6.3 nM in test [4]; greater than 1000 nM in test [5]; 2.7 nM in [6]. The 50% inhibitory concentration (IC50) in test [7] was greater than 1000 nM; in the test on HT-29 it was 4.03 µM; in the test on A549 [8], greater than 10 µM; in the test with KARPAS-299, 93 nM; in test [9], 6.3 nM; in the test on HCC78, 130 nM.
In the case of `COc1cc(NC(=O)N2CCOCC2)ccc1Nc1ncc(Cl)c(Nc2ccccc2NC(C)=O)n1`, the IC50 in the test with NCI-H2228 [1] was 56 nM; in the test with A549 [2], 30 nM; in [3] it was 0.73 nM; in test [4], 2.1 nM; in test [5] it was greater than 1000 nM; in test [6], 0.91 nM. Moreover, the 50% inhibitory concentration (IC50) was greater than 1000 nM in test [7]; greater than 10 µM with HT-29; 1.61 µM with A549 [8]; 27 nM with KARPAS-299; 4.3 nM in test [9]; 41 nM with HCC78. Also, the outcome in the test on NCI-H2228 [10], in the test on NCI-H2228 [12], in the test on NCI-H2228 [15] and in the test on NCI-H2228 [16] was Active. Also, the “Ratio IC50” value in the test on A549 [11] is 16.5. In addition, the Activity entry with NCI-H2228 [13], in the test on NCI-H2228 [14], in the test with NCI-H2228 [17] and in the test with NCI-H2228 [18] was “Dose-dependent effect” each time.
